These molecules were tested against T1, HDM2 (Homo sapiens, UniProt Q00987) (assay: HDM2 FRET assay (inhibition of binding of FITC labeled p53-pocket peptide to HDM2)). Conditions: Table 10; read-out: FRET IC50.
T1 construct: Thioredoxin (N); made in house; host or cells: E. coli strain BL21(DE3)Rosetta
Method in brief: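 Final: 0.5 nM His-HDM2, 3 nM FITC peptide, 0.25 nM Tb anti-His Ab; PBS, 0.01% BSA, 0.01% Tween-20; 0.1% DMSO.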

T1 sequence (Q00987 17-125): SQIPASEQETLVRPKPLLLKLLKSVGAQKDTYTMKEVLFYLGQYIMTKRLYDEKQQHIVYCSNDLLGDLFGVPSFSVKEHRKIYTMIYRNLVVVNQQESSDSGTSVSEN

Structure (SMILES)	IC50
C=CCN(c1nc(C(=O)O)nc2nc(NC(C)c3ccccn3)n(Cc3ccc(C(F)(F)F)cc3)c12)[C@H](C)C1CCC1 (stereo partly drawn) [Example 10.31, 6-(allyl((R)-1-cyclobutylethyl)amino)-8-((1-(pyridin-2-yl)ethyl)amino)-7-(4-(trifluoromethyl)benzyl)-7H-purine-2-carboxylic acid]	54.9 nM
CCCN(c1nc2nc(C(=O)O)nc(N[C@H](C)C3CCC3)c2n1Cc1ccc(C(F)(F)F)cc1)C(C)c1ccccn1 (stereo partly drawn) [Example 10.32, 6-(((R)-1-cyclobutylethyl)amino)-8-(propyl(1-(pyridin-2-yl)ethyl)amino)-7-(4-(trifluoromethyl)benzyl)-7H-purine-2-carboxylic acid]	3.72 nM
CC1CCN(C)C(c2nc3nc(C(=O)O)nc(N[C@H](C)C4CCC4)c3n2C[C@H]2CC[C@H](C)CC2)C1 (stereo partly drawn) [Example 10.33, 6-(((R)-1-Cyclobutylethyl)amino)-8-(1,4-dimethylpiperidin-2-yl)-7-((trans-4-methylcyclohexyl)methyl)-7H-purine-2-carboxylic acid]	17.7 nM
CCN1CCC(C)CC1c1nc2nc(C(=O)O)nc(N[C@H](C)C3CCC3)c2n1C[C@H]1CC[C@H](C)CC1 (stereo partly drawn) [Example 10.34, 6-(((R)-1-Cyclobutylethyl)amino)-8-(1-ethyl-4-methylpiperidin-2-yl)-7-((trans-4-methylcyclohexyl)methyl)-7H-purine-2-carboxylic acid]	5.98 nM

Same assay, conditions: Table 11; read-out: FRET IC50

Structure (SMILES)	IC50
CC1CCCN(c2nc3nc(C(=O)O)nc(N[C@H](C)C4CCC4)c3n2C[C@H]2CC[C@H](C)CC2)C1C (stereo partly drawn) [Example 11.1, 6-(((R)-1-cyclobutylethyl)amino)-8-(2,3-dimethylpiperidin-1-yl)-7-((trans-4-methylcyclohexyl)methyl)-7H-purine-2-carboxylic acid]	4.55 nM
CC(C)CC1CCCCN1c1nc2nc(C(=O)O)nc(N[C@H](C)C3CCC3)c2n1C[C@H]1CC[C@H](C)CC1 (stereo partly drawn) [Example 11.2, 6-(((R)-1-cyclobutylethyl)amino)-8-(2-isobutylpiperidin-1-yl)-7-((trans-4-methylcyclohexyl)methyl)-7H-purine-2-carboxylic acid]	1.82 nM
CC(C)CC1CCCCN1c1nc2nc(-c3noc(=O)[nH]3)nc(N[C@H](C)C3CCC3)c2n1C[C@H]1CC[C@H](C)CC1 (stereo partly drawn) [Example 11.3, 3-(6-(((R)-1-cyclobutylethyl)amino)-8-(2-isobutylpiperidin-1-yl)-7-((trans-4-methylcyclohexyl)methyl)-7H-purine-2-yl)-1,2,4-oxadiazol-5(4H)-one]	6.14 nM
C[C@@H](Nc1nc(C(=O)O)nc2nc(N3CCCCC3C3CCCCC3)n(C[C@H]3CC[C@H](C)CC3)c12)C1CCC1 (stereo partly drawn) [Example 11.4, 6-(((R)-1-cyclobutylethyl)amino)-8-(2-cyclohexylpiperidin-1-yl)-7-((trans-4-methylcyclohexyl)methyl)-7H-purine-2-carboxylic acid]	1.56 nM
C[C@@H](Nc1nc(-c2noc(=O)[nH]2)nc2nc(N3CCCCC3C3CCCCC3)n(C[C@H]3CC[C@H](C)CC3)c12)C1CCC1 (stereo partly drawn) [Example 11.5, 3-(6-(((R)-1-cyclobutylethyl)amino)-8-(2-cyclohexylpiperidin-1-yl)-7-((trans-4-methylcyclohexyl)methyl)-7H-purine-2-yl)-1,2,4-oxadiazol-5(4H)-one]	450 nM
CC1CCCN(c2nc3nc(C(=O)O)nc(N[C@H](C)C4CCC4)c3n2C[C@H]2CC[C@H](C)CC2)C1c1ccccc1 (stereo partly drawn) [Example 11.6, 6-(((R)-1-cyclobutylethyl)amino)-8-(3-methyl-2-phenylpiperidin-1-yl)-7-((trans-4-methylcyclohexyl)methyl)-7H-purine-2-carboxylic acid]	1.82 nM
CC1CCCN(c2nc3nc(-c4noc(=O)[nH]4)nc(N[C@H](C)C4CCC4)c3n2C[C@H]2CC[C@H](C)CC2)C1c1ccccc1 (stereo partly drawn) [Example 11.7, 3-(6-(((R)-1-cyclobutylethyl)amino)-8-(3-methyl-2-phenylpiperidin-1-yl)-7-((trans-4-methylcyclohexyl)methyl)-7H-purin-2-yl)-1,2,4-oxadiazol-5(4H)-one]	6.34 nM
C[C@@H](Nc1nc(-c2noc(=O)[nH]2)nc2nc(N3CCC[C@H]3CF)n(C[C@H]3CC[C@H](C)CC3)c12)C1CCC1 [Example 11.8, 3-(6-{[(1R)-1-cyclobutylethyl]amino}-8-[(2S)-2-(fluoromethyl)pyrrolidin-1-yl]-7-[(trans-4-methylcyclohexyl)methyl]-7H-purin-2-yl)-1,2,4-oxadiazol-5(4H)-one]	2.36 nM
C[C@H]1CC[C@H](Cn2c(N3CCOC[C@H]3c3ccccc3)nc3nc(-c4noc(=O)[nH]4)nc(N4CC[C@@H]4C4CCC4)c32)CC1 [Example 11.9, 3-(6-((R)-2-Cyclobutylazetidin-1-yl)-7-((trans-4-methylcyclohexyl)methyl)-8-((R)-3-phenylmorpholino)-7H-purin-2-yl)-1,2,4-oxadiazol-5(4H)-one]	27.3 nM
C[C@@H](Nc1nc(C(=O)O)nc2nc(N3CCOC[C@H]3c3ccccc3)n(C[C@H]3CC[C@H](C)CC3)c12)C1CCC1 [Example 11.10, 6-{[(1R)-1-cyclobutylethyl]amino}-7-[(trans-4-methylcyclohexyl)methyl]-8-[(3R)-3-phenylmorpholin-4-yl]-7H-purine-2-carboxylic acid]	0.202 nM
C[C@@H](Nc1nc(-c2noc(=O)[nH]2)nc2nc(N3CCOC[C@H]3c3ccccc3)n(C[C@H]3CC[C@H](C)CC3)c12)C1CCC1 [Example 11.11, 3-(6-{[(1R)-1-cyclobutylethyl]amino}-7-[(trans-4-methylcyclohexyl)methyl]-8-[(3R)-3-phenylmorpholin-4-yl]-7H-purin-2-yl)-1,2,4-oxadiazol-5(4H)-one]	0.626 nM
C[C@@H](Nc1nc(C(=O)O)nc2nc(N3CCCC[C@@H]3c3ccccc3)n(C[C@H]3CC[C@H](C)CC3)c12)C1CCC1 [Example 11.12, 6-{[(1R)-1-cyclobutylethyl]amino}-7-[(trans-4-methylcyclohexyl)methyl]-8-[(2R)-2-phenylpiperidin-1-yl]-7H-purine-2-carboxylic acid]	2.82 nM
C[C@@H](Nc1nc(-c2noc(=O)[nH]2)nc2nc(N3CCCC[C@@H]3c3ccccc3)n(C[C@H]3CC[C@H](C)CC3)c12)C1CCC1 [Example 11.13, 3-(6-{[(1R)-1-cyclobutylethyl]amino}-7-[(trans-4-methylcyclohexyl)methyl]-8-[(2R)-2-phenylpiperidin-1-yl]-7H-purin-2-yl)-1,2,4-oxadiazol-5(4H)-one]	26.7 nM
C[C@@H](Nc1nc(C(=O)O)nc2nc(N3CCCC[C@H]3c3ccccc3)n(C[C@H]3CC[C@H](C)CC3)c12)C1CCC1 [Example 11.14, 6-{[(1R)-1-cyclobutylethyl]amino}-7-[(trans-4-methylcyclohexyl)methyl]-8-[(2S)-2-phenylpiperidin-1-yl]-7H-purine-2-carboxylic acid]	0.381 nM
C[C@@H](Nc1nc(-c2noc(=O)[nH]2)nc2nc(N3CCCC[C@H]3c3ccccc3)n(C[C@H]3CC[C@H](C)CC3)c12)C1CCC1 [Example 11.15, 3-(6-{[(1R)-1-cyclobutylethyl]amino}-7-[(trans-4-methylcyclohexyl)methyl]-8-[(2S)-2-phenylpiperidin-1-yl]-7H-purin-2-yl)-1,2,4-oxadiazol-5(4H)-one]	2.81 nM

Source: EP2951180B1, “2,6,7,8 SUBSTITUTED PURINES AS HDM2 INHIBITORS” (Merck Sharp & Dohme Corp., priority 2013, dated 2014)
